Here are results for 20 molecules from paper PMC3656252 (The Journal of Biological Chemistry, 2013).

Data set [1] concerns DP8. Briefly: 1.7 milliunits of recombinant DP8 in assay buffer: 50 mM Tris, 100 mM NaCl, pH 8.0. The conditions noted are these: human, 37 °C, up to 24 h.
In data set [2] the test system is DP9. Briefly: 1.7 milliunits of recombinant DP9 in assay buffer: 50 mM Tris, 100 mM NaCl, pH 8.0. The following applies: human, 37 °C, up to 24 h.
In data set [3] the test system is DP8. The following applies: cited from earlier work. From the text: (§1) In vitro, both DP8 and DP9 cleave the well known DP4 substrates neuropeptide Y(1–36), glucagon-like peptide-1(7–36), glucagon-like peptide-2(1–33), and peptide YY(1–36) ([18], [19]). […] However, as DP8 and DP9 are intracellular enzymes, it is unlikely that these secreted substrates will be of physiological relevance in vivo. Clues for their in vivo roles come from studies blocking DP ...

Data set [4] concerns DP9. The following applies: cited from earlier work.
Source text: as §1

No end group written: not given here.

Consider AEVKKPAAAAAPGTAEKLSP, for which the not cleaved entry in data set [1] and in data set [2] was “nc (not cleaved) after 24 h” each time. Turning to APAEILNGKEISAQIR, the cleaved bond entry in data set [1] and in data set [2] was “P-A” in each case. Consider APGQLALFSVSDKTGLVEFAR, for which the cleaved bond entry in data set [1] and in data set [2] was “P-G” throughout. For the molecule APKFPDSVEELRAAG, the cleaved bond result in data set [1] and in data set [2] was “P-K” in each case. For the molecule APLDLDKYVEIARLCK, the cleaved bond result in data set [1] and in data set [2] was “P-L” each time. For APSVPAAEPEYPKGIR, the cleaved bond entry in data set [1] is “P-S, 1 h”; in data set [2], “P-S, 1 h”. For the molecule APVLSKDSADIESILALNPR, the cleaved bond entry in data set [1] and in data set [2] was “P-V” each time. For the molecule ASGANFEYIIAEKRGK, the not cleaved entry in data set [1] and in data set [2] was “nc (not cleaved) after 24 h” in each case. For the molecule ATAKGIAIGIDLGTTYSCVG, the not cleaved entry in data set [1] and in data set [2] was “nc (not cleaved) after 24 h” throughout. Regarding DDEVDVDGTVEEDLGKSR, the not cleaved entry in data set [1] and in data set [2] was “nc (not cleaved) after 24 h” in each case.

For EPAVYFKEQFLDGDGWTSR, the cleaved bond result in data set [1] was “P-A, 1 h”; in data set [2], “P-A, 1 h”. In the case of PPKKGGDGIKPPPIIGR, the cleaved bond result in data set [1] and in data set [2] was “P-K” each time. As to SPADLPKSWDWRNVDG, the cleaved bond entry in data set [1] and in data set [2] was “P-A” in each case. For VSKPTLKEVVIVSATR, the not cleaved entry in data set [1] and in data set [2] was “nc (not cleaved) after 24 h” each time. Consider “glucagon-like peptide-1(7–36): well known DP4 substrate (HAEGTFTSDVSSYLEGQAAKEFIAWLVKGR; ends and bridges not checked; UniProt P01275 98-127, looked up)”, for which, in data set [3], the “Cleavage by DP8 in vitro” value was “cleave”. In addition, the “Cleavage by DP9 in vitro” value in data set [4] is given as “cleave”. Take “glucagon-like peptide-2(1–33): well known DP4 substrate (HADGSFSDEMNTILDNLAARDFINWLIQTKITD; Glucagon-like peptide 2; UniProt P01275 146-178, looked up)”: in data set [3], the “Cleavage by DP8 in vitro” value is given as “cleave”. Further, the “Cleavage by DP9 in vitro” value in data set [4] is given as “cleave”. As to “interferon-γ-inducible protein: chemokine, known DP4 substrate”, in data set [3], the “DP8 cleavage of chemokines in vitro” value was “cleavage”. On to “neuropeptide Y(1–36): well known DP4 substrate”, for which the “Cleavage by DP8 in vitro” value in data set [3] was “cleave”. For the same molecule, the “Cleavage by DP9 in vitro” value in data set [4] was “cleave”. As for “peptide YY(1–36): well known DP4 substrate”, the “Cleavage by DP8 in vitro” value in data set [3] is given as “cleave”. The “Cleavage by DP9 in vitro” value in data set [4] is listed as “cleave”.

B1: interferon-inducible T cell α-chemoattractant: chemokine, known DP4 substrate (protein, UniProt O14625 22-94, looked up)
C-X-C motif chemokine 11: FPMFKRGRCLCIGPGVKAVKVADIEKASIMYPSNNCDKIEVIITLKENKGQRCLNPKSKQARLIIKKVERKNF
For the molecule B1, the “DP8 cleavage of chemokines in vitro” value in data set [3] is “cleavage”.
